One experiment deals with DLD-1 BRCA2 (-/-). The experiment can be described thus: Combined use with combination drug, matrix study, Bliss Independence model (Cell Titer Glo, 7 days). The class given is cell-based. The following applies: combination with Olaparib (PARP inhibitor). As for the experimental part:
(§1) DLD-1 colorectal adenocarcinoma cells, DLD-1 BRCA2 (-/-) colorectal adenocarcinoma cells, SHP-77 human small cell lung cancer cells, NCI-H82 human small cell lung cancer cells, LNCAP prostate cancer cells, KURAMOCHI human ovarian cancer cells, A2780 human ovarian cancer cells, and NCI-H23 non-small cell lung cancer cells were cultured in a 1640 medium containing 10% fetal bovine serum. SKOV3 human ovarian cancer cells were cultured in a McCoy's 5A (modified) medium containing 10% fetal bovine serum. OVCAR3 ovarian cancer cells were cultured in a 1640 medium containing 20% fetal bovine serum and 10 µg/mL bovine insulin. MDA-MB-436 breast cancer cells (natural BRCA1 mutation) and A549 non-small cell lung cancer cells were cultured in a DMEM medium containing 10% fetal bovine serum. Capan-1 human pancreatic cancer cells (natural BRCA2 mutation) were cultured in an IMDM medium containing 20% fetal bovine serum. The cells were all cultured at 37 °C with 5% CO2. Cells at the logarithmic growth phase were available for the experiment.
(§2) 100 µL of the cell medium was added to rows A and H and columns 1 and 12 of a 96-well cell culture plate. Cultured cells were resuspended (adherent cells were digested with trypsin) and counted to give information on cell density and viability. The dilution ratio of the resuspended cells required for inoculating a fixed number of cells into 80 µL of the medium in each culture well was calculated based on the cell density information. After the resuspended cells were diluted with the corresponding medium, 80 µL of the diluted cells were transferred to columns 2-11 of rows B-G of a 96-well cell culture plate using an Eppendorf multi-channel pipette (60 wells in total for each plate). The cell culture plate was incubated overnight in an incubator at 37 °C with 5% CO2.
(§3) The test compound and the combination compound were dissolved in DMSO to give a 10 mM solution for later use. In the experiment, the compound was further diluted to the corresponding concentration according to the concentration designed in the experiment, and based on this concentration, serial gradient dilution was performed. Matrix study was performed at 8 or 7 dose concentrations of the test compound (the lowest dose concentration was 0, and other specific concentration values were shown in FIG. 1) and 7 or 8 dose concentrations of the combination compound (the lowest dose concentration was 0, and other specific concentration values were shown in FIG. 1). 10 µL of each of the diluted combination compound and test compound was added to the corresponding cell plate well, such that the final concentration of DMSO was 0.25%. The test compound and the cells were incubated in an incubator at 37 °C with 5% CO2 for another 7 days, Cell Titer Glo was added at 50 µL/well, and the luminescence value of each well was read using an Envision microplate reader.
(§4) The luminescence value of the well containing only the cell medium was taken as the background (RLUbackground, corresponding cell survival rate to be 0%), the cell well containing only 0.25% DMSO without the compound was taken as the maximum signal (RLUDMSO, corresponding cell survival rate to be 100%), and the luminescence values of the remaining wells containing cells and compounds at different concentrations were taken as RLUsample. The survival rate of each cell well was calculated as follows: Survival rate (%) = (RLUsample−RLUbackground)/(RLUDMSO−RLUbackground) × 100% [formula]
(§5) The interaction between drugs (synergistic, independent, or antagonistic) was statistically analyzed by the Bliss Independence model using Combenefit software (Bliss, C.I., Bacteriol. Rev., 1956, 20, 243-258). The model assumes that each drug acts independently. The theoretical expected action curve of the combination was calculated from the following equation: Bliss effect = effect A + effect B−effect A × effect B [formula] wherein effect A and effect B are the effects of drugs A and B alone at specific concentrations. […]
A general note: Cellular ATP, detected with luciferase, serves as a proxy for viable cell number.

The test system of another experiment is MDA-MB-436. The experiment is described as above. The following applies: combination with Niraparib (PARP inhibitor). Format: cell-based. Here is the method: as §1, §2, §3, §4, §5
Experiment [1] relates to DLD-1 BRCA2 (-/-) cell line. The experiment can be described thus: Inhibition of tumor cell proliferation, 7 days, CTG. Format: cell-based. The following applies: Homo sapiens, DLD-1, 168 h, 7 days incubation. Here is the method:
(§6) Brief introduction to experimental principle: After the compound was co-incubated with tumor cells for 7 days, the ATP in viable cells was quantified using the CTG kit from Promega to reflect the effect of the compound on tumor cell proliferation.
(§7) Experimental methods: DLD-1 parent cells or DLD-1 BRCA2 (-/-) cells were diluted with an RPMI 1640 medium containing 10% FBS and then added to a 96-well plate (90 µL/well), with the number of cells being 600/well or 1200/well, respectively, and incubated overnight in an incubator at 37 °C with 5% CO2. The test compound was diluted to different concentrations with dimethyl sulfoxide (DMSO) and then added to a 96-well plate, such that, in the reaction system, the compound was serially diluted 4-fold from the final concentration of 25 µM. The concentration range of the compound was from 25 µM to 0.0004 µM, and the final concentration of DMSO was 0.25% v/v. After incubation for 7 days, 50 µL/well of CTG was added, and the mixture was incubated at room temperature for 10 min. The luminescence (Lum) signal value was read using an Envision microplate reader, and the inhibition rate and half inhibitory concentration (IC50) were calculated.
(§8) Inhibition rates were calculated and fitted using XLfit software to give the IC50 of the compound.
(§9) A Blank well and a DMSO well were set in the experiment. The blank well contained 100 µL of an RPMI Medium 1640 medium containing 10% FBS, and the inhibition rate of the compound on tumor cell growth was considered to be 100% under this condition. For the DMSO well, 0.25% v/v DMSO was added to the cell-containing well, and the inhibition rate of the compound on tumor cell growth was considered to be 0 under this condition. Inhibition rate = 100 × (Lummax−Lumcompound)/(Lummax−Lummin)% [formula] wherein Lummax refers to the luminescence signal value of the well containing cells and 0.25% v/v DMSO, and Lumcompound refers to the luminescence signal value of the well containing the compound and cells. Lummin refers to the luminescence signal value of the well containing the medium and 0.25% v/v DMSO.

The test system of the next experiment is DLD-1 parent cells. The description is as above. Format: cell-based. The following applies: Homo sapiens, DLD-1, 168 h, 7 days incubation. As for the experimental part: as §6, §7, §8, §9
The target in experiment [2] is T1, N-terminal active peptide segment of POLQ with ATPase activity (M1-N899) (Homo sapiens, UniProt O75417).
T1 construct: N-terminal active peptide segment of POLQ with ATPase activity (M1-N899)
T1 sequence (O75417 1-899): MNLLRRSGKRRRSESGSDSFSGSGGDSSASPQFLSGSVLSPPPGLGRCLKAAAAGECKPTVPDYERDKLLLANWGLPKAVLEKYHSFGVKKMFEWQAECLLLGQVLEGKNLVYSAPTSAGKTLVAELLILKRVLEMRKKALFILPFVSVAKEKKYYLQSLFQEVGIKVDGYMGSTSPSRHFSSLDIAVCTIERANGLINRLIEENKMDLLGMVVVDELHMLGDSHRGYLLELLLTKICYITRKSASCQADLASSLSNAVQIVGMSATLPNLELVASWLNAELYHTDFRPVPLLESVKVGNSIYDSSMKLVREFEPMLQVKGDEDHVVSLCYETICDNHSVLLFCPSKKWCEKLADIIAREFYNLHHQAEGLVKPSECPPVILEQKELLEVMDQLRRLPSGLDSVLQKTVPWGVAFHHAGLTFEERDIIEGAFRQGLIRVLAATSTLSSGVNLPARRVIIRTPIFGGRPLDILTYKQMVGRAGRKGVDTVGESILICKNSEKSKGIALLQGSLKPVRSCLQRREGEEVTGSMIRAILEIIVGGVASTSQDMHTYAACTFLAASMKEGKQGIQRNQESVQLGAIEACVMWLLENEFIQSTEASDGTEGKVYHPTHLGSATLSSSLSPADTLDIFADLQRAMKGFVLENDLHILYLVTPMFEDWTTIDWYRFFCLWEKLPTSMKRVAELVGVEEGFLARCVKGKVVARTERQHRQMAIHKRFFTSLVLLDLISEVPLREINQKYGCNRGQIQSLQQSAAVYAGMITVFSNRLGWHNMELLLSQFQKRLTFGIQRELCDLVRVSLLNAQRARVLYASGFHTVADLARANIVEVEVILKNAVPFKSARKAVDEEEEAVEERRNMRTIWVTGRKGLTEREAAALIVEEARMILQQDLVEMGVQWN
As to the kind of experiment: POLQ enzyme activity inhibition experiment (ATPase, NADH oxidation-coupled, OD 340 nm). Format: biochemical. Here is the method:
Brief introduction to experimental principle: After the N-terminal active peptide segment of POLQ with ATPase activity (M1-N899) is co-incubated with the compound, this peptide segment reacts with substrate dT50 under the action of ATP to generate ADP. The generated ADP then participates in the subsequent NADH oxidation-coupled enzymatic reaction, catalyzing the conversion of NADH to NAD^+. The reduction in the OD value of NADH at 340 nm was measured using the Envision microplate reader from Perkin Elmer to reflect enzyme activity. Experimental instruments: Labcyte Echo 650 pipetting system; Perkin Elmer Envision microplate reader; Eppendorf 5810R centrifuge; Boxun BSD-YX3400 thermostatic shaker.
Experimental methods: The POLQ enzyme was diluted to 100 nM with a reaction buffer (20 mM Tris HCl (pH 7.80), 80 mM KCl, 10 mM MgCl2, 1 mM DTT, 0.01% w/v bovine serum albumin, 0.01% v/v Tween-20, 5% v/v glycerol). The test compound was diluted to different concentrations with dimethyl sulfoxide (DMSO) using an Echo 650 pipetting system and transferred to a 384-well plate, 20 µL/well of 100 nM POLQ was added, and the mixture was incubated at room temperature for 15 min. A reaction mixture solution was prepared with the concentrations of each component in the reaction mixture solution as follows: 100 µM ATP, 300 nM dT50, 300 µM NADH, 6 mM PEP, 10 U/mL lactate dehydrogenase, and 20 U/mL pyruvate kinase. 20 µL/well of the reaction mixture solution was added to start the enzyme reaction. In the reaction system, the compound was serially diluted 3-fold from the final concentration of 10 µM, covering a concentration range from 10 µM to 0.0005 µM, and the final concentration of DMSO in the system was 0.2% v/v. After the 384-well plate was reacted at room temperature for 20 min, the OD value at 340 nm was read using an Envision microplate reader.
as §8
A blank group and a DMSO group were set in the experiment. […]

Molecules are shown by their SMILES. A value given as a limit tells only on which side of the number the result lay.

Turning to `COc1ccc(Cl)cc1-c1cc(C)ncc1C(=O)Nc1nc2ncc(-c3ccc(C#N)cc3)nc2s1` [Compound I, 4-(5-Chloro-2-methoxyphenyl)-N-[6-(4-cyanophenyl)thiazolo[4,5-b]pyrazin-2-yl]-6-methylnicotinamide], the Combined effect result in the experiment on DLD-1 BRCA2 (-/-) and in the experiment on MDA-MB-436 was “Synergistic” each time. Moreover, the IC50 (commonly the midpoint of a concentration-inhibition curve) in experiment [1] was less than 200 nM; in the experiment on DLD-1 parent cells it was not below 10000 nM; in experiment [2], less than 100 nM.

In the case of `COc1cnc(C)cc1-c1cc(C)ncc1C(=O)Nc1nc2ncc(-c3ccc(C#N)cc3)nc2s1` [Compound II, N-(6-(4-Cyanophenyl)thiazolo[4,5-b]pyrazin-2-yl)-5'-methoxy-2',6-dimethyl-[4,4'-bipyridinyl]-3-carboxamide], the Combined effect entry with DLD-1 BRCA2 (-/-) and in the experiment with MDA-MB-436 was “Synergistic” throughout. The IC50 in experiment [1] is less than 200 nM; in the experiment with DLD-1 parent cells, not below 10000 nM; in experiment [2], less than 100 nM.

In the case of `COc1ccc(Cl)cc1-c1cc(C)ncc1C(=O)Nc1nc2ncc(-c3ccc(C4CC4)cn3)nc2s1` [Compound III, 4-(5-Chloro-2-methoxyphenyl)-N-[6-(5-cyclopropylpyridin-2-yl)thiazolo[4,5-b]pyrazin-2-yl]-6-methylpyridine-3-carboxamide], the Combined effect entry in the experiment with DLD-1 BRCA2 (-/-) is recorded as “Synergistic”. The concentration for half-maximal inhibition (IC50) in experiment [1] was less than 200 nM; in experiment [2], less than 100 nM.
